# Measurements: US20200270225A1, “Chiral Diacylhydrazine Ligands for Modulating the Expression of Exogenous Genes via an Ecdysone Receptor Complex” (Intrexon Corporation, priority 2007, published 2020)
# Where two headings read alike, the source gives them in different places.
# Key:
# [1] = target: wild-type Choristoneura fumiferana EcR (D, E and F domains) (Choristoneura fumiferana, UniProt O77240); assay type: cell-based; conditions: WT-CtEcR, 3T3 Cells; for RMFI (relative maximum fold induction): relative to GS-E ligand
# Procedure: (§1) Cellular gene switch assays were performed by transiently transfecting the following constructs in mouse embryonic fibroblast cells (NIH3T3). The wild-type D, E and F domains from Choristoneura fumiferana EcR or its V390I/Y410E/E274V mutant were fused to GAL4-DBD and placed under the control of the CMV promoter in the pBIND vector (Promega Corporation, Madison, Wis., USA). The DEF domains of EcRs shown were amplified using primers designed based on 20-25 nt sequences at the 5′ and 3′ ends. Restriction enzyme sites EcoR I/BamH I and Xba I were added to 5′ and 3′ primers respectively. The PCR products were digested with appropriate restriction enzymes and cloned into pBIND vector. The EcR LBDs cloned into pBIND vector were verified by sequencing. A chimeric RXR from Homo sapiens RXRP and Locusta migratoria RXR, fused to VP16-AD and placed under the control of an SV40e promoter, was constructed as previously described (Kumar P & Katakam A in Gene Transfer, Friedmann T and Rossi J, eds, pp. 643-651 (2007), Cold Spring Harbor Laboratory Press, Cold Spring Harbor, N.Y.). The inducible luciferase reporter plasmid pFRLuc (Stratagene Cloning Systems, La Jolla, Calif., USA), contains five copies of the GAL4 response element and a synthetic minimal promoter.
# (§2) NIH3T3 cells were maintained at 37′C and 5% CO2 in Dulbecco's modified Eagle's medium (DMEM) supplemented with 10% bovine calf serum, both obtained from Mediatech Inc., Manassas, Va. Cells were planted in a 96-well plate at a density of 2,500 cells/well in 50 μL of growth medium. The following day cells were first treated with 35 μL of serum-free DMEM containing dimethyl sulfoxide (DMSO; control) or a DMSO solution containing ligand. Cells were then transfected with 15 μl of serum-free DMEM containing 0.04 μg of EcR construct, 0.04 ug of RXR construct, and 0.16 μg of luciferase reporter construct per well, using SuperFect™ transfection reagent (Qiagen Inc., Valencia, Calif., USA) according to the manufacturer's instructions. Ligands were tested at 8 doses from 0.01-33 μM and the final DMSO concentration was 0.33% in both control and treatment wells. After a 48 hour post-treatment and transfection incubation, the cells were assayed for luciferase activity using the Bright-Glo™ Luciferase Assay System (Promega Corporation, Madison, Wis., USA) following the manufacturer's instructions. EC50 values were measured minimally in duplicate.
# (§3) Luciferase reporter gene expression was measured 48 h after cell treatment using Bright-Glo™ Luciferase Assay System from Promega (E2650). Luminescence was detected at room temperature using a Dynex MLX microtiter plate luminometer.
# (§4) Each assay was conducted in two separate wells, and the two values were averaged. Fold inductions were calculated by dividing relative light units (“RLU”) in ligand treated cells with RLU in DMSO treated cells. EC50s were calculated from dose response data using a three-parameter logistic model. Relative Max FI was determined as the maximum fold induction of the tested ligand (an embodiment of the invention) observed at any concentration relative to the maximum fold induction of GS™-E ligand (3,5-dimethyl-benzoic acid N-tert-butyl-N′-(2-ethyl-3-methoxy-benzoyl)-hydrazide) observed at any concentration.
# [2] = target: T1, [V390I/Y410E/E274V]-CfEcR (Choristoneura fumiferana, UniProt O77240); assay type: cell-based; conditions: 3T3 Cells; for RMFI (relative maximum fold induction): relative to GS-E ligand
# T1 construct: assay construct b835
# Procedure: as §1, §2, §3, §4
Structure (SMILES),"EC50 ([1]; rac, read-out: EC50) [nM]",RMFI (relative maximum fold induction) ([1]; rac),"EC50 ([2]; rac, read-out: EC50) [nM]",RMFI (relative maximum fold induction) ([2]; rac),EC50 ([1]; R) [nM],RMFI (relative maximum fold induction) ([1]; R),EC50 ([2]; R) [nM],RMFI (relative maximum fold induction) ([2]; R)
CCCC(N(NC(=O)c1cccc(OC)c1C)C(=O)c1cc(OC)c(C)c(OC)c1)C(C)(C)C (racemic) [rac-51],80.2,0.82,15,0.81,–,–,–,–
C=CCC(C1CCCCC1)N(NC(=O)c1cccc(OC)c1C)C(=O)c1cc(C)cc(C)c1 (racemic) [rac-60],~1000,0.49,~200,0.73,–,–,–,–
C=CCC(C1CCCCC1)N(NC(=O)c1cccc(OC)c1C)C(=O)c1cc(OC)c(C)c(OC)c1 (racemic) [rac-61],~3300,0.31,521,0.39,–,–,–,–
C=CCC(CCc1ccccc1)N(NC(=O)c1ccc(CC)cc1)C(=O)c1cc(C)cc(C)c1 (racemic) [rac-62],~5000,0.06,2110,0.67,–,–,–,–
"C=CC[C@@H](N(NC(=O)OCc1ccccc1)C(=O)c1cc(C)cc(C)c1)C(C)(C)C [Example 1.5, (R)—N′-(1-tert-butyl-but-3-enyl)-N′-(3,5-dimethyl-benzoyl)-hydrazinecarboxylic acid benzyl ester]",–,–,–,–,> 10000,0.01,~2000,0.36
"CCC[C@@H](N(NC(=O)c1ccccc1OC)C(=O)c1cc(C)cc(C)c1)C(C)(C)C [Example 4, (R)-3,5-Dimethyl-benzoic acid N-(1-tert-butyl-butyl)-N′-(2-meihoxy-benzoyl)-hydrazide]",–,–,–,–,993,0.38,99,0.52
"CCC[C@@H](N(NC(=O)c1cc(OC)c(C)c(OC)c1)C(=O)c1cc(C)cc(C)c1)C(C)(C)C [Example 19, (R)-3,5-Dimethyl-benzoic acid N-(1-tert-butyl-butyl)-N′-(3,5-dimethoxy-4-methyl-benzoyl)-hydrazide]",–,–,–,–,~5000,0.09,~2000,0.37
"CCC[C@@H](N(NC(=O)c1ccc2c(c1C)OCO2)C(=O)c1cc(C)cc(C)c1)C(C)(C)C [Example 20, (R)-3,5-Dimethyl-benzoic acid N-(1-tert-butyl-butyl)-N′-(4-methyl-benzo[1,3]dioxole-5-carbonyl)-hydrazide]",–,–,–,–,7.6,1.02,0.26,1.01
"CCC[C@@H](N(NC(=O)c1cccs1)C(=O)c1cc(C)cc(C)c1)C(C)(C)C [Example 25, (R)-3,5-Dimethyl-benzoic acid N-(1-tert-butyl-butyl)-N′-(thiophene-2-carbonyl)-hydrazide]",–,–,–,–,432,0.42,~20,0.72
"CCC[C@@H](N(NC(=O)c1cc(C)oc1C)C(=O)c1cc(C)cc(C)c1)C(C)(C)C [Example 26, (R)-3,5-Dimethyl-benzoic acid N-(1-tert-butyl-butyl)-N′-(2,5-dimethyl-furan-3-carbonyl)-hydrazide]",–,–,–,–,~1000,1.16,99.4,0.95
"CCC[C@@H](N(NC(=O)c1cccnc1Cl)C(=O)c1cc(C)cc(C)c1)C(C)(C)C [Example 27, (R)-3,5-Dimethyl-benzoic acid N-(1-tert-butyl-butyl)-N′-(2-chloro-pyridine-3-carbonyl)-hydrazide]",–,–,–,–,95.2,0.70,7,0.73
